From paper PMC4838304, “Effective Design of Multifunctional Peptides by Combining Compatible Functions” (PLoS Computational Biology, 2016) come the findings set out here.

Ends that are not written are not given here.

One experiment deals with pGREG546 plasmid. Description: Electrophoretic mobility shift assay (EMSA), DNA retention. The experiment is classed as binding. To be noted: 1μg pGREG546, DNA to peptide charge ratio 1:1 or 1:4, 30 minutes. An excerpt:
To test the ability of the designed peptides to bind nucleic acids, we evaluated by electrophoretic mobility shift assays (EMSAs) the retention of DNA by the designed peptides. Each EMSA was executed with peptide quantities that were multiples of the DNA to peptide charge ratio. A DNA to peptide charge ratio of 1:1 is represented by the number of positive charges of the peptide required to neutralize the negative charges of the DNA backbone. Retention in the gel is an indirect measure of the fraction of positive charges within the peptide participating in binding the DNA molecules. All EMSA assays were performed using the yeast plasmid pGREG546. As negative control, pGREG546 without any peptide was used, and as positive control the known DNA-binding cell penetrating peptide MPG was used. […] However, retention in the gel was observed when NLS was joined to any larger peptide fragment.
Fig 4 DNA binding. (A) Quantification of DNA retention obtained from three independent electrophoretic mobility shift assays. All measurements are shown and horizontal bars denote the sample mean. Representative gels are shown in (B-C).
1μg of pGREG546 plasmid was pre-incubated with the required quantity of each peptide to result in a 1:1 or 1:4 peptide charge to DNA charge ratio. Samples were incubated for 30 minutes and loaded on a 1% Agarose gel in SB buffer. DNA affinity was quantified by measuring the mean pixel intensity of the DNA bands with Fiji (http://fiji.sc) and normalizing to the intensity range between an empty spot on the gel and the intensity of the pGREG546 plasmid without any added peptide. Analysis scripts for the EMSA experiments as well as the raw data can be found with the distributed source code at http://bis.ifc.unam.mx/software/dcf.
On the technique in general: In EMSA bound probe runs differently from free probe, usually more slowly.

Another experiment deals with BY4741 yeast cells. The experiment can be described thus: Internalization assay in yeast, confocal microscopy. It counts as cell-based, Saccharomyces cerevisiae. To be noted: TAMRA-labeled versions, 60 μM, BY4741, pictures at 0, 10 and 20 min. The source says:
We first evaluated whether the designed peptides retained the activity of the templates. The presence of the NLS sequence may locate peptides in the nuclei of cells; for that to happen first the peptides have to be internalized. […] For yeast cells, confocal microscopy was used to evaluate CPP activity in our peptides (see Fig 2).
Fig 2 Designed peptides internalized into yeast cells. (A-F) Internalization assays in BY4741 yeast cells for peptide controls where Arg and Lys residues were replaced by Glu residues (A-C) and the original peptides (D-F). All peptides were used at 60 μM (final concentration) and labeled with the TAMRA fluorophore (see Table 1 and Materials and Methods for further details).
All 6 fluorogenic peptides (TAMRA-peptides, see Table 1) were prepared to 600μM in water as a 10X stock solution. Although all the peptides were apparently soluble in water, they all formed aggregates under the microscope. […] These samples were observed under a multi-photon confocal microscope (Olympus FV1000) and pictures were recorded at 0, 10 and 20 min after the peptide addition. […] Bright field images were chosen from the in-focus z-stack, whereas TAMRA images denote the average fluorescence across the entire z-stack to obtain the fluorescence inside the entire cell volume. Images were analyzed using Fiji (http://fiji.sc/Downloads#Fiji).

“KRRWRFVWMNPKKKRKVPPWPYLLWWHWLQLKPGQPMY [chimera]”: in the experiment with pGREG546 plasmid, the “DNA binding in EMSA, in words” value is reported as “effective DNA-binding activity”. For the same sequence, the “internalization into yeast cells” value with BY4741 yeast cells was “quickly accumulate in the cell membrane and inside the yeast cells”.

On to “FRKWRRKPKKKRKVWWRKVKRRWHWLQLKPGQPMY [NLS-α-CE]”, for which, in the experiment on pGREG546 plasmid, the “DNA binding in EMSA, in words” value is “effective DNA-binding activity”. In the experiment on BY4741 yeast cells, the “internalization into yeast cells” value was “quickly accumulate in the cell membrane and inside the yeast cells”.
